# ± gives the standard deviation of the averaged measurements.
# Assay: TIMS collisional cross section (CCS, N2) of the lipid ion; higher = larger ion cross section
# Details: ionization mode: positive, one isomer drawn
SMILES,TIMS collisional cross section (sample type: HeLa) [Å²],TIMS collisional cross section (sample type: Liver) [Å²],TIMS collisional cross section (sample type: plasma) [Å²]
CCCCC/C=C\C/C=C\C/C=C\C/C=C\CCCC(=O)OC[C@@H](O)COP(=O)([O-])OCC[N+](C)(C)C [LPC 20:4] (ion (formula + adduct): [C28H50NO7P+H] 1+),,230,231.65 ± 3.2
CCCCC/C=C\C/C=C\CCCCCCCC(=O)O[C@H](COC(=O)CCCCCCC/C=C\CCCCCCCC)COC(=O)CCCCCCCCCCCCCCCCCCCCC [TG 18:1_18:2_22:0] (ion (formula + adduct): [C61H112O6+NH4] 1+),,338.2,337.6
CCCCC/C=C\C/C=C\C/C=C\C/C=C\CCCC(=O)OC[C@@H](COC(=O)CCCCCCC/C=C\CCCCCCCC)OC(=O)CCCCCCC/C=C\C/C=C\CCCCC [TG 18:1_18:2_20:4] (ion (formula + adduct): [C59H100O6+NH4] 1+),,325.7,
CC/C=C\C/C=C\C/C=C\C/C=C\C/C=C\C/C=C\CCC(=O)OC[C@@H](COC(=O)CCCCCCC/C=C\C/C=C\CCCCC)OC(=O)CC/C=C\C/C=C\C/C=C\C/C=C\C/C=C\C/C=C\CC [TG 18:2_22:6_22:6] (ion (formula + adduct): [C65H98O6+NH4] 1+),,333.6,
CC/C=C\C/C=C\C/C=C\C/C=C\C/C=C\CCCCCC(=O)OC[C@@H](COC(=O)CCCCCCC/C=C\CCCCCCCC)OC(=O)CCC/C=C\C/C=C\C/C=C\C/C=C\CCCCC [TG 18:1_20:4_22:5] (ion (formula + adduct): [C63H102O6+NH4] 1+),333.4,,
CCCCCCCC/C=C\CCCCCCCC(=O)OC[C@H](COC(=O)CCCCCCCCCCCCCCCCCCCCC)OC(=O)CCCCCCC/C=C\CCCCCCCC [TG 18:1_18:1_22:0] (ion (formula + adduct): [C61H114O6+NH4] 1+),,339.7,339.3
CCCCC/C=C\C/C=C\C/C=C\C/C=C\CCCCCC(=O)OC[C@@H](COC(=O)CCCCCCC/C=C\C/C=C\CCCCC)OC(=O)CCCCCCCCC/C=C\C/C=C\CCCCC [TG 18:2_20:2_22:4] (ion (formula + adduct): [C63H106O6+NH4] 1+),,335.7,
CC/C=C\C/C=C\C/C=C\C/C=C\C/C=C\C/C=C\CCC(=O)OC[C@@H](COC(=O)CCCCCCC/C=C\CCCCCCC)OC(=O)CCCCCCC/C=C\CCCCCCCC [TG 17:1_18:1_22:6] (ion (formula + adduct): [C60H100O6+NH4] 1+),328.2,,
CCCCCCCCCCCCCCCCC(=O)OC[C@@H](COC(=O)CCCCCCCCCCC)OC(=O)CCCCCCCCCCCCCCC [TG 12:0_16:0_17:0] (ion (formula + adduct): [C48H92O6+NH4] 1+),,304.5,
CC/C=C\C/C=C\C/C=C\C/C=C\C/C=C\CCCCCC(=O)OC[C@@H](COC(=O)CCCCCCCCCCCCCCCCC)OC(=O)CCC/C=C\C/C=C\C/C=C\C/C=C\CCCCC [TG 18:0_20:4_22:5] (ion (formula + adduct): [C63H104O6+NH4] 1+),334.8,,
CC/C=C\C/C=C\C/C=C\C/C=C\C/C=C\C/C=C\CCC(=O)OC[C@@H](COC(=O)CCCCCCCCCCCCCCC)OC(=O)CCCCCCCCCCCCCCCCCCC [TG 16:0_20:0_22:6] (ion (formula + adduct): [C61H106O6+NH4] 1+),,335.3,
CCCCCCCCCCCCCCCCCC(=O)OC[C@@H](COC(=O)CCCCCCCCCCCCCCC)OC(=O)CCCCCCCCCCCCCCCC [TG 16:0_17:0_18:0] (ion (formula + adduct): [C54H104O6+NH4] 1+),323.3,323.6,323.4
CC/C=C\C/C=C\C/C=C\C/C=C\C/C=C\CCCCCC(=O)OC[C@@H](COC(=O)CCCCCCC/C=C\C/C=C\CCCCC)OC(=O)CCC/C=C\C/C=C\C/C=C\C/C=C\CCCCC [TG 18:2_20:4_22:5] (ion (formula + adduct): [C63H100O6+NH4] 1+),,333,
CCCCCCCCCCCCC/C=C/[C@@H](O)[C@H](CO[C@@H]1OC(CO)[C@@H](O[C@@H]2OC(CO)[C@H](O)[C@H](O)C2O)[C@H](O)C1O)NC(=O)CCCCCCCCCCCCCCC (some centres not stated) [GlcCer d18:1_16:0@] (ion (formula + adduct): [C46H87NO13+H] 1+),,,304.2
CCCCCCCCCCCCCCCCCC(=O)OC[C@@H](O)COP(=O)(O)OC[C@H](N)C(=O)O [LPS 18:0] (ion (formula + adduct): [C24H48NO9P+H] 1+),229.2,229.2,

# Continued, values first:
TIMS collisional cross section (sample type: HeLa) [Å²],TIMS collisional cross section (sample type: Liver) [Å²],TIMS collisional cross section (sample type: plasma) [Å²],SMILES
283.2,,,CC/C=C\C/C=C\C/C=C\C/C=C\C/C=C\CCCC(=O)O[C@H](COC(=O)CCCCCCC/C=C\CCCCCC)COP(=O)([O-])OCC[N+](C)(C)C [PC 16:1_20:5] (ion (formula + adduct): [C44H76NO8P+H] 1+)
331.2,,,CC/C=C\C/C=C\C/C=C\C/C=C\C/C=C\CCCCCC(=O)OC[C@@H](COC(=O)CCCCCCCCCCCCCCC)OC(=O)CCCCCCC/C=C\CCCCCCCCC [TG 16:0_19:1_22:5] (ion (formula + adduct): [C60H104O6+NH4] 1+)
280.4,280.35 ± 0.071,,CCCCC/C=C\C/C=C\C/C=C\C/C=C\CCCC(=O)O[C@H](COC(=O)CCCCCCCCCCCCCCCC)COP(=O)(O)OCCN [PE 17:0_20:4@] (ion (formula + adduct): [C42H76NO8P+H] 1+)
253.5,253.85 ± 0.49,253.3,CCCCCCCC/C=C\CCCCCCCCCCCCCC(=O)OC[C@@H](O)COP(=O)([O-])OCC[N+](C)(C)C [LPC 24:1] (ion (formula + adduct): [C32H64NO7P+H] 1+)
,275.7,,CC/C=C\C/C=C\C/C=C\C/C=C\C/C=C\C/C=C\CCC(=O)O[C@H](COC(=O)CCCCCCCCCCCCCC)COP(=O)(O)OCCN [PE 15:0@_22:6] (ion (formula + adduct): [C42H72NO8P+H] 1+)
,,237.55 ± 1.2,CCCCC/C=C\C/C=C\C/C=C\C/C=C\CCCCCC(=O)OC[C@@H](O)COP(=O)([O-])OCC[N+](C)(C)C [LPC 22:4] (ion (formula + adduct): [C30H54NO7P+H] 1+)
313.4,,,CCCCCC/C=C\CCCCCCCC(=O)OC[C@H](COC(=O)CCCCCCC/C=C\CCCCCCCC)OC(=O)CCCCCCC/C=C\CCCCCC [TG 16:1_16:1_18:1] (ion (formula + adduct): [C53H96O6+NH4] 1+)
320,320.5,,CCCCC/C=C\C/C=C\CCCCCCCCCC(=O)OC[C@@H](COC(=O)CCCCCCCCCCCCC)OC(=O)CCCCCCC/C=C\CCCCCCCC [TG 14:0_18:1_20:2] (ion (formula + adduct): [C55H100O6+NH4] 1+)
,291.4,,CCCCCCCCCCCCCCCCCC(=O)O[C@H](COC(=O)CCCCCCCCCCCCCCC)COP(=O)([O-])OCC[N+](C)(C)C [PC 16:0_18:0] (ion (formula + adduct): [C42H84NO8P+H] 1+)
287.7,,,CC/C=C\C/C=C\C/C=C\C/C=C\C/C=C\CCCC(=O)O[C@H](COCCCCCCCCCCCCCCCC)COP(=O)([O-])OCC[N+](C)(C)C [PC O- 16:0@_20:5] (ion (formula + adduct): [C44H80NO7P+H] 1+)
,301.8,,CCCCCCCCCCCCCCCCC(=O)OC[C@@H](COC(=O)CCCCCCCCCCCC)OC(=O)CCCCCCCCCCCCC [TG 13:0_14:0_17:0] (ion (formula + adduct): [C47H90O6+NH4] 1+)
294.9,,,CCCCC/C=C\C/C=C\C/C=C\C/C=C\CCCCCC(=O)O[C@H](COC(=O)CCCCCCCCCCCCCCC)COP(=O)([O-])OCC[N+](C)(C)C [PC 16:0@_22:4] (ion (formula + adduct): [C46H84NO8P+H] 1+)
,279.7,279.8,CCCCC/C=C\C/C=C\CCCCCCCC(=O)O[C@H](COC(=O)CCCCCCCCCCCCCCCCC)COP(=O)(O)OCCN [PE 18:0_18:2] (ion (formula + adduct): [C41H78NO8P+H] 1+)
,316,317.8,CCCCC/C=C\C/C=C\CCCCCCCC(=O)OC[C@@H](COC(=O)CCCCCCCCCCCCCCC)OC(=O)CCCCCCC/C=C\CCCCCCC [TG 16:0_17:1_18:2] (ion (formula + adduct): [C54H98O6+NH4] 1+)
,,317.2,CC/C=C\C/C=C\C/C=C\CCCCCCCC(=O)OC[C@@H](COC(=O)CCCCCCC/C=C\CCCCCCC)OC(=O)CCCCCCC/C=C\C/C=C\CCCCC [TG 17:1_18:2_18:3] (ion (formula + adduct): [C56H96O6+NH4] 1+)
,,299.8,CCCCCCCC/C=C\CCCCCCCCCCCCCC(=O)N[C@@H](COP(=O)([O-])OCC[N+](C)(C)C)[C@H](O)/C=C/CCCCCCCCCCC [SM d16:1_24:1@] (ion (formula + adduct): [C45H89N2O6P+H] 1+)
,,325.1,CC/C=C\C/C=C\C/C=C\C/C=C\C/C=C\CCCC(=O)OC[C@@H](COC(=O)CCCCCCCCCCCCCCCCC)OC(=O)CCCCCCC/C=C\C/C=C\C/C=C\CC [TG 18:0_18:3_20:5] (ion (formula + adduct): [C59H98O6+NH4] 1+)
,318.1,319.9,CC/C=C\C/C=C\C/C=C\C/C=C\C/C=C\CCCC(=O)OC[C@@H](COC(=O)CCCCCCCCCCCCCCC)OC(=O)CCCCCCC/C=C\C/C=C\CCCCC [TG 16:0_18:2_20:5] (ion (formula + adduct): [C57H96O6+NH4] 1+)
332.9,,,CCCCCCCC/C=C\CCCCCCCCCCCC(=O)OC[C@@H](COC(=O)CCCCCCCCCCCCCCC)OC(=O)CCCCCCCCCCCCCCCC [TG 16:0_17:0_22:1] (ion (formula + adduct): [C58H110O6+NH4] 1+)

# Source: the supplement of paper PMC6965134
